Assay results: article PMC9374377, “Noninvasive interrogation of CD8^+ T cell effector function for monitoring early tumor responses to immunotherapy” (The Journal of Clinical Investigation, 2022)
Where a SMILES comes first, the peptide text is derived from it. The star is where a group is joined. X1 = O=C(O)CN1CCN(CC(=O)O)CC(Cc2ccc(NC(=S)*)cc2)N(CC(=O)O)CC1

What was measured:
[1] = system: MC38 tumor–bearing mice; experiment: FTY720 treatment of MC38 tumor–bearing mice under anti–PD-1 plus anti–CTLA-4; format: in vivo, mouse
Description: MC38 or B16-OVA tumor–bearing C57BL/6 mice were euthanized, and tumor tissues were harvested and digested with 10 U/mL collagenase I, 400 U/mL collagenase IV, and 30 U/mL DNase (Yuanye Bio-Technology) to generate single-cell suspensions. The following fluorescently labeled antibodies were then used for staining of different markers: anti-CD45 (clone 30-F11, BioLegend), anti-CD4 (clone RM4-5, eBioscience), anti-CD8 (clone 53-6.7, BioLegend), anti-NK1.1 (clone PK136, BioLegend), anti–granzyme B (clone QA16A02, BioLegend), and anti–IFN-γ (clone XMG1.2, BioLegend). For granzyme B and IFN-γ staining, cells were incubated in culture medium containing a cell activation cocktail (catalog 423303, BioLegend) at 37°C for 5 hours and then washed with permeabilization wash buffer (catalog 421002, BioLegend) before being stained with fluorescently labeled antibodies. Data collection and analysis were performed on a flow cytometer (Becton Dickinson).
The tumor sections were fixed with ice-cold acetone for 10 minutes and washed with PBS. Next, the slices were blocked with 1% BSA for 1 hour and incubated with rabbit anti–mouse granzyme B antibody (catalog 17215S, Cell Signaling Technology) or rabbit anti–mouse NK1.1 antibody (clone EPR22990-31, Abcam) overnight at 4°C. The slices were then visualized by incubation with FITC-conjugated secondary antibody (catalog E031220-01, Earthox) and DAPI (Biotium) under a confocal microscope (Leica).

[2] = system: MC38 tumor–bearing mice; settings: mouse, in vivo
Description: (§1) Small-animal PET scanning and image analysis were performed using a Super Nova PET/CT scanner ([sequence]). […] At the indicated times (0.5, 1, and 2 hours) after injection, 10-minute static PET scans were acquired. PET images were analyzed, and the region of interest–derived (ROI-derived) %ID/g values were calculated as described previously ([52]).
MC38 tumor-bearing C57BL/6 mice were pretreated with anti-PD-1 antibody
For the small-animal PET imaging studies, ten MC38 tumor-bearing C57BL/6 mice
CTLA-4 (clone 9D9; BioXcell) antibodies on days 0, 3, and 6 after the tumor size
grazytracer. Mice were anesthetized with 2% inhaled isoflurane, and 10-min static PET
scans were acquired at 0.5, 1, and 2 h postinjection using a small-animal Super Nova
PET/CT scanner ([sequence], Shanghai, China). The tumor %ID/g values and tumor-
to-muscle ratios of 68Ga-NOTA-GZP and 68Ga-grazytracer were calculated for

[3] = system: 4T1 tumor–bearing mice; settings: mouse, in vivo
Description: as §1

[4] = In vivo metabolic stability (serum and urine, radio-HPLC); parameters: species or system mouse; settings: female C57BL/6 normal mice, 5.55 MBq i.v.
Description: μg/day on days 0, 3, and 6).
distribution of the radiotracer in the main organs. Mice were euthanized at 0.5, 1, and
and measured using a γ counter (Packard, Meriden, CT). The results are presented as
In vivo metabolic stability studies
grazytracer or 68Ga-NOTA-GZP.
and analyzed using radio-HPLC.

## CCCCCCCCc1ccc(CCC(N)(CO)CO)cc1 [FTY720]
[1]; 25 μg i.p. on day –1, 10 μg daily day 0 to 12, n = 6–9
  effect on the antitumor effect of anti–PD-1 plus anti–CTLA-4: partially reversed the antitumor effect
[1]; MC38 mice, n = 6–9
  body weight: without influencing body weight
[1]; MC38 tumors on day 6
  granzyme B secretion in tumors (immunofluorescence): reduced granzyme B secretion in tumors
[1]; flow cytometry, day 6, n = 5/group
  levels of NK, CD4+ T and CD8+ T cells in tumor versus group without FTY720: significantly lower

## OC[C@H]1OC(O)[C@H](F)[C@@H](O)[C@@H]1O (some centres unmarked) [^18F-FDG, ^18F-fluorodeoxyglucose]
[2]
  change of tumor uptake from days 0 to 6, pseudoprogression MC38 model: significantly increased
[3]
  change of tumor uptake from days 0 to 6, true-progression 4T1 model: significantly increased

## CC[C@H](C)[C@H](NC(=O)CNC(=O)CNC(=O)CNC(=S)Nc1ccc(CC2CN(CC(=O)O)CCN(CC(=O)O)CCN2CC(=O)O)cc1)C(=O)N[C@@H](CCC(=O)O)C(=O)N[C@@H](Cc1ccccc1)C(=O)N[C@H](C=O)CC(=O)O (some centres unmarked) [^68Ga-NOTA-GZP, ^68Ga-1,4,7–triazacyclononane-1,4,7-triacetic acid–GZP, metal not drawn] (X1-GGGIEFD-aldehyde)
[4]; serum at 0.5 hours after injection
  in vivo metabolic stability in blood: favorable stability in the blood
[4]; urine at 0.5 hours after injection
  in vivo metabolic stability in urine: some decomposition in urine
